Experimental data taken from patent publication US7910694B2, “Homing peptides to receptors of heart vasculature” (Cornell Research Foundation, Inc., priority 2002, dated 2011).
“Also recorded” adds a separate entry of the source.

What was measured:
[1] = test system: receptors in the heart vasculature; assay: Binding of homing peptides to receptors in heart vasculature versus other organs; design: species or system mammal; details: for binding to BDNF receptor(s) in the vasculature of older hearts: usually trkB, more commonly truncated trkB; for binding to receptors on other organs (than heart, or heart and brain): organ selectivity
[2] = test system: cardiac microvascular endothelial cells (CMECs); assay: PDGF-B induction (RT-PCR) after TNFα treatment of cultured CMECs; type: cell-based, F344 rats; details: 4-month old rat CMECs, TNFα 30 ng/ml, 3 hr
Source text: FIG. 4. Aging-associated alterations in cardiac microvascular TNFα receptor pathways. (A) Representative immunostaining for TNF receptor 1 and 2 in the subepicardium and subendocardium of 3- and 18-month old murine hearts. (B) TNF receptor 1 and 2 densities in the subendocardium of 3- and 18-month old murine hearts (n=3, each). (C) RT-PCR for PDGF-B induction after TNFα treatment of 4- and 24-month old rat CMECs.
The functional significance of the changes in TNF receptor in the aging cardiac microvasculature was examined in vitro. Cardiac microvascular endothelial cells (CMECS) of 4 and 24-month old F344 rats were isolated and cultured. Briefly, the hearts were removed and minced in endothelial cell medium (DMEM containing 20% FBS, 1% endothelial cell growth factor, 1% endothelial cell growth supplement, 1% BME, 10^−4% heparin and 1% penicillin [10,000 I.U./ml]/streptomycin [10,000 μg/ml]), and digested with medium containing 0.2% collagenase and 0.005% Dnase, and 5% FBS for 45 minutes with subsequent endothelial cells isolation by PECAM-mediated magnetic particle collection (Dynabeads). The resultant CMECs (Dil-LDL uptake>95%) were cultured for 2 passages and seeded into 12-well culture dish (10^5 cells/well) and grown to confluence. Medium was changed to serum free-DMEM for 1 hr and then to medium containing 2% FBS+TNFα (30 ng/ml) for 3 hr.

[3] = test system: myocardial infarction; assay: Intramyocardial TNFα followed by coronary occlusion: myocardial necrosis, apoptosis, mortality; type: in vivo, F344 rats
Description: (§1) FIG. 5. Aging-associated alterations in TNFα cardioprotection. (A) Representative immunostaining for PDGF-B in rat hearts injected with TNFα or PBS vehicle 24 h prior to sacrifice. (B) Quantification of PDGF-B density in the injected hearts (n=3, each group). (C) Representative cardiac histology after coronary occlusion: Mason's trichrome staining for myocardial necrosis (14 day post-coronary occlusion) in 4- and 24-month old rat hears treated with PBS (4- and 24-month old, n=4 and 10, respectively) and TNFα (4-month old, n=4); and (D) tunnel staining for apoptosis (DAB) with hematoxylin counter stain (2 day post-coronary occlusion) in 24-month old hearts treated with TNFα (n=10; 80% mortality vs. PBS 0%; p<0.05). (E) Quantification of myocardial necrosis in rat hearts 14 day post-coronary occlusion.
(§2) To examine the age-dependent effects of TNFα PDGF-B expression and protection from myocardial necrosis, sets of 4- and 24-month old F344 rats received intramyocardial injections of growth factor.

[4] = test system: PDGF-B; assay: Intramyocardial injection of TNFα: PDGF-B immunostaining in hearts; type: in vivo, F344 rats; details: 100 ng intramyocardial, 24 h
Description: as §1, §2

## ARRGQAV
[1]
  binding to BDNF receptor(s) in the vasculature of older hearts: bind
  binding to receptors on other organs (than heart, or heart and brain): do not bind significantly

## GRRFIRV
[1]
  binding to BDNF receptor(s) in the vasculature of older hearts: bind
  binding to receptors on other organs (than heart, or heart and brain): do not bind significantly

## QAQGQLV
[1]
  binding to receptors on other organs (than heart, or heart and brain): does not bind significantly
[1]; young vs older hearts
  binding capacity to TNF receptor(s) in vasculature of young versus older hearts: more binding capacity

## TNFα: tumor necrosis factor α, growth factor injected intramyocardially or added to CMECs (NPQAEGQLQV)
[2]
  PDGF-B expression in CMECs from young hearts: induced
[3]; 4-month old rats, 14 day post-coronary occlusion
  extent of myocardial infarction in young hearts: markedly reduced
[3]; 24-month old rats, anterior left ventricular wall, 2 day post-coronary occlusion
  apoptosis in older hearts: extensive apoptosis; also recorded: induced apoptosis
[3]; 24-month old rats, within 72 h of coronary occlusion
  mortality in older rats: 80%
[4]; 4-month old rats
  PDGF-B in young hearts in vivo: specifically induced increase
[4]; 24-month old rats
  PDGF-B in aging hearts in vivo: minimal effect
